Laboratory results: patent US6399088B1, “Citric acid tri-alkylamide surfactants” (Air Products and Chemicals, Inc., priority 2000, dated 2002)
Marks after values point to notes of the source that are not given here.

Columns and labels:
Assay type in all cases: physicochemical
[1] = Dynamic surface tension of aqueous solutions, maximum-bubble pressure method; details: for γ (0.1 wt % solution) (1 b/s) / γ (0.1 wt % solution) (6 b/s): 0.1 wt % solution in water
Method: Solutions of the citramides of Examples 1-4 in distilled water were prepared. Dynamic surface tension data were obtained using the maximum-bubble pressure method at bubble rates from 0.1 bubbles/second (b/s) to 20 b/s as described in Langmuir 1986, 2, 428-432. […] In practical terms, high bubble rates correspond to high printing speeds in lithographic printing, high spray or roller velocities in coating applications, rapid application rates for agricultural products and electronics cleaning and processing.
(§1) The solubility limits of Examples 6 and 7 were determined by intersection of the linear portion of a surface tension/In (concentration) curve with the limiting surface tension as is described in many textbooks. Since Example 8 contained insoluble material at 0.005 wt %, the solubility limit is reported as <0.005 wt %. Also, the solubility limit of ˜10 wt % reported for Example 1 is the lowest concentration at which a significant amount of insoluble material was seen. The relative efficiency of surfactants can be obtained by comparing surface tension reduction of solutions containing the same amount of different surfactants. Such data is given for 0.1 wt % solutions of the tri-alkylcitramides at 1.0 and 6.0 b/s. The limiting surface tensions at 0.1, 1, 6 and 20 b/s represent the lowest surface tensions in water which can be achieved at the given surface creation rates for a given surfactant regardless of the amount of surfactant used and is used to evaluate the effectiveness of a surfactant. These values give information about the relative ability of a surfactant to reduce surface defects under near-equilibrium conditions (0.1 b/s) through very dynamic conditions (20 b/s). Lower surface tensions would allow the elimination of defects upon application of a formulation onto lower energy surfaces.

[2] = Solubility limit in water
Method: as §1

[3] = Foam test based upon ASTM D 1173-53; details: 0.1 wt % solution; for initial foam: foam height at completion of addition
Method: The foaming properties of a 0.1 wt % solutions of the tri-alkylcitramides (N,N′,N″-tri-n-propylcitramide, N, N′, N″-tri-n-butylcitramide, N, N′, N″-tri-iso-butylcitramide and N,N′,N″-tri-iso-amylcitramide) were examined using a procedure based upon ASTM D 1173-53. In this test, a 0.1 wt % solution of the citramide surfactant was added from an elevated glass pipette to a receiver containing the same solution. The foam height was measured at the completion of the addition (“Initial Foam Height”) and the time required for the foam to dissipate at the air-liquid interface (“Time to 0 Foam”) was recorded. This test provided a comparison between the foaming characteristics of the various citramides. In general, in coatings, inks, adhesives, agricultural and electronics cleaning formulations, foam is undesirable because it complicates handling and can lead to coating and print defects, and to inefficient application of materials.

[4] = limiting surface tension in water, 0.1 bubbles/second
[5] = limiting surface tension in water, 1 bubble/second
[6] = limiting surface tension in water, 6 bubbles/second
[7] = limiting surface tension in water, 20 bubbles/second
[8] = in water, from observed insoluble material

SMILES | γ (0.1 wt % solution) (1 b/s) ([1]; 1 b/s) | γ (0.1 wt % solution) (6 b/s) ([1]; 6 b/s) | γ limiting (0.1 b/s) [1, 4] | γ limiting (1 b/s) [1, 5] | γ limiting (6 b/s) [1, 6] | γ limiting (20 b/s) [1, 7] | solubility limit ([2]; in distilled water) | solubility limit [2, 8] | time to zero foam [3] | initial foam [3] | dynamic surface tension (0.1 b/s) ([1]; added to water at 5 wt %, material remained undissolved, 0.1 b/s) | dynamic surface tension (1 b/s) ([1]; added to water at 5 wt %, material remained undissolved, 1 b/s) | dynamic surface tension (6 b/s) ([1]; added to water at 5 wt %, material remained undissolved, 6 b/s) | dynamic surface tension (20 b/s) ([1]; added to water at 5 wt %, material remained undissolved, 20 b/s) | γ limiting (0.1 b/s) ([1]; limiting γ at 0.005 wt. % surfactant, 0.1 b/s) | γ limiting (1 b/s) ([1]; limiting γ at 0.005 wt. % surfactant, 1 b/s) | γ limiting (6 b/s) ([1]; limiting γ at 0.005 wt. % surfactant, 6 b/s) | γ limiting (20 b/s) ([1]; limiting γ at 0.005 wt. % surfactant, 20 b/s) | relative solubility in water ([2]; in comparison to N,N′,N″-tri-iso-butylcitramide)
CCCNC(=O)CC(O)(CC(=O)NCCC)C(=O)NCCC [Example 1, N,N′,N″-tri-n-propylcitramide] | 66.7 Dyne/cm | 67.2 Dyne/cm | 42.9 Dyne/cm | 43.1 Dyne/cm | 43.7 Dyne/cm | 44.9 Dyne/cm | ˜10 Weight % | ~10 wt % | 10 s | 2.8 cm |  |  |  |  |  |  |  |  | 
CC(C)CCNC(=O)CC(O)(CC(=O)NCCC(C)C)C(=O)NCCC(C)C [Example 4, N,N′,N″-tri-iso-amylcitramide] | 63.3 Dyne/cm | 66.6 Dyne/cm |  |  |  |  | <0.005 Weight % | < 0.005 wt % | 2 s | 1.3 cm | 45.7 dyne/cm | 45.9 dyne/cm | 46.4 dyne/cm | 47.4 dyne/cm | 51.6^c Dyne/cm | 62.6^c Dyne/cm | 67.0^c Dyne/cm | 71.4^c Dyne/cm | 
CCCCNC(=O)CC(O)(CC(=O)NCCCC)C(=O)NCCCC [Example 2, N,N′,N″-tri-n-butylcitramide] | 51.2 Dyne/cm | 52.6 Dyne/cm | 43.6 Dyne/cm | 43.9 Dyne/cm | 44.6 Dyne/cm | 46.2 Dyne/cm | 0.4 Weight % |  | 9 s | 1.3 cm |  |  |  |  |  |  |  |  | more soluble
CC(C)CNC(=O)CC(O)(CC(=O)NCC(C)C)C(=O)NCC(C)C [Example 3, N,N′,N″-tri-iso-butylcitramide] | 51.8 Dyne/cm | 52.5 Dyne/cm | 46.6 Dyne/cm | 46.8 Dyne/cm | 47.3 Dyne/cm | 48.4 Dyne/cm | 0.2 Weight % |  | 10 s | 1.0 cm |  |  |  |  |  |  |  |  | 
